pEC50, pIC50: −log10 of the molar value.
Experiments:
Raji [1] = assay: IL2 production in PD-L1 positive human Raji cells measured after 24 hrs by Cell titer glo assay
Raji [2] = assay: IL2 production in PD-L1 negative human Raji cells measured after 24 hrs by Cell titer glo assay
[3] = target: Diacylglycerol kinase alpha (Homo sapiens, UniProt P23743); assay: Inhibition of human DGK alpha using 1, 2-Dilauroyl-sn-glycerol as substrate by ADP-Glo assay
[4] = target: Diacylglycerol kinase beta (Homo sapiens, UniProt Q9Y6T7); assay: Inhibition of human DGK beta using 1, 2-Dilauroyl-sn-glycerol as substrate by ADP-Glo assay
[5] = target: Diacylglycerol kinase gamma (Homo sapiens, UniProt P49619); assay: Inhibition of human DGK gamma using 1, 2-Dilauroyl-sn-glycerol as substrate by ADP-Glo assay
Sequence of Diacylglycerol kinase gamma (P49619 whole entry): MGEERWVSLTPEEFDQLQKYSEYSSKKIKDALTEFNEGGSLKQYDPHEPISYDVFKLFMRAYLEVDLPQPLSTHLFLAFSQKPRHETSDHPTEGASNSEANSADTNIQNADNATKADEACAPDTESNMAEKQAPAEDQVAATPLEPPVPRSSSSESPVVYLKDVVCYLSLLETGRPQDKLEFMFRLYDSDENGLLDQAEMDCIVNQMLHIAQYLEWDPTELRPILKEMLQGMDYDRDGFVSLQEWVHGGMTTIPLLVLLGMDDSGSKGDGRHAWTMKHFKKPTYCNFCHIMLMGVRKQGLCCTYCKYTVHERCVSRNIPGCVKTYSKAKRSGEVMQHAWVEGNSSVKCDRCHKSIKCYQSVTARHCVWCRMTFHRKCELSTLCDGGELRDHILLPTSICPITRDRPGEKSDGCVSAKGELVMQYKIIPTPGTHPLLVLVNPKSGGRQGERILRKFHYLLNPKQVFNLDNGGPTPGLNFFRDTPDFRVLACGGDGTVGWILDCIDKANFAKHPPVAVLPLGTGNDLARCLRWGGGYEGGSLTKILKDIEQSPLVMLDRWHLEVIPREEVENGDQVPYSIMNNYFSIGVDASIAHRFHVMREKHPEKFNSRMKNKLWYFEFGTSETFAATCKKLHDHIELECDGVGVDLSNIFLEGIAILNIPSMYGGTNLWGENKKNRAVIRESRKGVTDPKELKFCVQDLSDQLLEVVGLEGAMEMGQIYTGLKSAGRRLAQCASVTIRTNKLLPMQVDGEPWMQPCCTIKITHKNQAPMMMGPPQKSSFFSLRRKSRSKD

[6] = target: Diacylglycerol kinase zeta (Homo sapiens, UniProt Q13574); assay: Inhibition of human DGK zeta using 1, 2-Dilauroyl-sn-glycerol as substrate by ADP-Glo kinase assay
Sequence of Diacylglycerol kinase zeta (Q13574 whole entry): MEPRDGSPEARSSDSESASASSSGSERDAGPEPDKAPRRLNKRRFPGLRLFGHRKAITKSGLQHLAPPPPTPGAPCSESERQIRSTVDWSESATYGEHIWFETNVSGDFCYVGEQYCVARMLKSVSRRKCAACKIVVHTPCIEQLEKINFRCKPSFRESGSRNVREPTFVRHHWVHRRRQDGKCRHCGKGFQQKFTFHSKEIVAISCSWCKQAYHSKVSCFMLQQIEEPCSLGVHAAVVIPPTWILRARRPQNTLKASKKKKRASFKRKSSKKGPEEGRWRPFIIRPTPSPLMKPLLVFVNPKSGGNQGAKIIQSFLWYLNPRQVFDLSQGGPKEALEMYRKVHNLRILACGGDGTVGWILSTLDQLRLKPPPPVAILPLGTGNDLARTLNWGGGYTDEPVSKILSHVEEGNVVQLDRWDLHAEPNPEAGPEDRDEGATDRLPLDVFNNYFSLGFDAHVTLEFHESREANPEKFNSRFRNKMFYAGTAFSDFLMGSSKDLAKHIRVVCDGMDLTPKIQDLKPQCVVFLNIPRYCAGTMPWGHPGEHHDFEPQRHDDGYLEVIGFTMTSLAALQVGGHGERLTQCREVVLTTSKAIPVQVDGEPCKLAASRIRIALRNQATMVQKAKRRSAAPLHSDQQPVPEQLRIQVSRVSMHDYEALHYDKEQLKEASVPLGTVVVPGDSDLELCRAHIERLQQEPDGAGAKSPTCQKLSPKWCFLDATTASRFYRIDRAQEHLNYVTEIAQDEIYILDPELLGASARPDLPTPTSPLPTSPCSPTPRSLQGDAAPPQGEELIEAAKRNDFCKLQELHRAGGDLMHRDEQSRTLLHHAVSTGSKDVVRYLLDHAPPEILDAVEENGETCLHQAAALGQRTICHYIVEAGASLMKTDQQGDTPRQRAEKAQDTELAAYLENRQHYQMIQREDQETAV

[7] = target: Diacylglycerol kinase iota (Homo sapiens, UniProt O75912); assay: Inhibition of human DGK iota using 1, 2-Dilauroyl-sn-glycerol as substrate by ADP-Glo kinase assay
Sequence of Diacylglycerol kinase iota (O75912 whole entry): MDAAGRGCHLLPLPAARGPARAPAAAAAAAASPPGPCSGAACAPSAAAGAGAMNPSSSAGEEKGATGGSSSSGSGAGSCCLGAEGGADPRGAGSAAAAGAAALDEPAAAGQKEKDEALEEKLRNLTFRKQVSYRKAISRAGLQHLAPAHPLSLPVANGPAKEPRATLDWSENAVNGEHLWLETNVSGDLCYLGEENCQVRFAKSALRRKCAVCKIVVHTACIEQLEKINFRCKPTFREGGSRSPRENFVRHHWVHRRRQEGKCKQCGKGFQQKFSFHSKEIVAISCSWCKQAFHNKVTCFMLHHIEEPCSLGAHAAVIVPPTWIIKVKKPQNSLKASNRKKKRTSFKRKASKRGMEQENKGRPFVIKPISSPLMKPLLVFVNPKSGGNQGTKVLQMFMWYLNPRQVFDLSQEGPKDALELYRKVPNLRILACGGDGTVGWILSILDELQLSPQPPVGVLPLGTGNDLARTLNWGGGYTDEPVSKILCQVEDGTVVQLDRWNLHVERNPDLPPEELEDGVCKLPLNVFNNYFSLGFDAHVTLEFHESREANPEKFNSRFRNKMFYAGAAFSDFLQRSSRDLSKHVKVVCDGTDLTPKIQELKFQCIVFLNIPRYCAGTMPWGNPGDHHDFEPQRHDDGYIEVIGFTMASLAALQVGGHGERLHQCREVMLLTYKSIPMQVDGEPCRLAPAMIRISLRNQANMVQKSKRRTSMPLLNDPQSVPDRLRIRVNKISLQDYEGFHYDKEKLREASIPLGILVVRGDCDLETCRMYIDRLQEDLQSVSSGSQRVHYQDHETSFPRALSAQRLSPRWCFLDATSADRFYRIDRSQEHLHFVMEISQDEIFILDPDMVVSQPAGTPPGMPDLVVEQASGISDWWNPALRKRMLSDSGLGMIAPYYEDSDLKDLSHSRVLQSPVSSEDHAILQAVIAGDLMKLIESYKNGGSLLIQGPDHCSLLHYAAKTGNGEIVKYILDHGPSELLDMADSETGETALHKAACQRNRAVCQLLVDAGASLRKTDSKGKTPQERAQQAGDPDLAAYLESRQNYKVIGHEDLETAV

[8] = Inhibition of DGK in human whole blood cell assessed as increase in IFNgamma level incubated for 1 hr followed by anti-human CD3/ antiCD28 mAB stimulation and measure after 24 hrs by AlphaLISA assay; type: tissue-based
[9] = Induction of proliferation of human CD8-positive T cell measured after 24 hrs by Cell titer glo assay
[10] = Metabolic stability in mouse liver microsomes assessed as parent compound remaining; type: ADME, Microsome
[11] = Metabolic stability in human liver microsomes assessed as parent compound remaining; type: ADME, Microsome

Sequence of Diacylglycerol kinase alpha (P23743 whole entry): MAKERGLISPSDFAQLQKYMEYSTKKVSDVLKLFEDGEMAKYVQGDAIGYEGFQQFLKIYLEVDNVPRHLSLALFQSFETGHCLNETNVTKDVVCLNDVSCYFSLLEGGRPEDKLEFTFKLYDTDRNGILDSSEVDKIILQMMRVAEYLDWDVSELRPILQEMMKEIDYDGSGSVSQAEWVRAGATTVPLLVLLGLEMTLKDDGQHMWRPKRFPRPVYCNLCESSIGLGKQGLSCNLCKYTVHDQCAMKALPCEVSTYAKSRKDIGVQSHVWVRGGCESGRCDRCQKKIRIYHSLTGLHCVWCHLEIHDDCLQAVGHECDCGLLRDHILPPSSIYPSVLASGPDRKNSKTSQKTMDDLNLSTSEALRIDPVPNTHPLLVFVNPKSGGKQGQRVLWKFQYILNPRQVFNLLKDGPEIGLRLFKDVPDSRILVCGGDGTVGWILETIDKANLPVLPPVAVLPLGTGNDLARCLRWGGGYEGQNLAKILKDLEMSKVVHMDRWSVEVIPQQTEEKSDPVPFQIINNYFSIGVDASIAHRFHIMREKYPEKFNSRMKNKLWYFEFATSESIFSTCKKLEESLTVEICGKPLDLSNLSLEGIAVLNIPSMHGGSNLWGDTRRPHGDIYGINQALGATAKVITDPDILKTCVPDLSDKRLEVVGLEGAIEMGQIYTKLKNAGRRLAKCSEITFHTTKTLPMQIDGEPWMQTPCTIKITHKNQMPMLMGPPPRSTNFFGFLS

| Compound | pEC50 (Raji [1]) | pEC50 (Raji [2]) | Stability [10] [%] | Stability [11] [%] | also measured |
| --- | --- | --- | --- | --- | --- |
| O=c1[nH]c2ccccc2c(N2CCN(C(c3ccc(F)cc3)c3ccc(F)cc3)CC2)c1[N+](=O)[O-] | < 4.48 | < 4.00 |  |  |  |
| O=c1c2ccccc2[nH]c(=S)n1CCN1CCC(=C(c2ccc(F)cc2)c2ccc(F)cc2)CC1 [DIACYLGLYCEROL KINASE INHIBITOR II] |  |  |  |  | pIC50 [3]: 5.37; pIC50 [4]: < 5.00; pIC50 [5]: 5.47; pIC50 [6]: < 5.00; pIC50 [7]: < 5.00; pEC50 [8]: < 5.00; pEC50 [9]: < 5.00 |
| CCCN1CCN(c2c([N+](=O)[O-])c(=O)n(C)c3ccccc23)CC1 | < 4.00 | < 4.00 |  |  |  |
| CCn1c(=O)c([N+](=O)[O-])c(N2CCN(C(c3ccc(F)cc3)c3ccc(F)cc3)CC2)c2ccccc21 | < 4.00 | < 4.00 |  |  |  |
| CC(c1ccccc1)N1CCN(c2c([N+](=O)[O-])c(=O)n(C)c3ccccc23)CC1 (configuration not stated) | 5.19 | 5.03 | 4 | 25 |  |
| Cn1c(=O)c([N+](=O)[O-])c(N2CCN(C(c3ccc(F)cc3)c3ccc(F)cc3)CC2)c2ccccc21 | 5.82 | 5.43 | 84 | 86 |  |
| CCOC(=O)c1c(N2CCN(C(c3ccccc3)c3ccccc3)CC2)c2ccccc2n(C)c1=O | 5.39 | 4.70 | 52 | 49 |  |
| CC(=O)c1c(N2CCN(C(c3ccccc3)c3ccccc3)CC2)c2ccccc2n(C)c1=O | 5.07 | 4.89 |  |  |  |
| Cn1c(=O)c([N+](=O)[O-])c(N2CCN(C(c3ccc(F)cc3)c3ccc(F)cc3)CC2)c2cccnc21 | 5.11 | 4.89 |  |  |  |
| Cn1c(=O)c([N+](=O)[O-])c(N2CCN(CCc3ccccc3)CC2)c2ccccc21 | < 4.00 | < 4.00 | 6 | 28 |  |
| O=C1/C(=C/C=C/c2ccco2)SC(=S)N1NS(=O)(=O)c1ccccc1 |  |  |  |  | pIC50 [3]: 6.22 |
| Cn1c(=O)cc(N2CCN(C(c3ccccc3)c3ccccc3)CC2)c2ccccc21 | < 5.30 | < 4.80 | 63 | 93 |  |
| Cn1c(=O)c(C(=O)O)c(N2CCN(C(c3ccccc3)c3ccccc3)CC2)c2ccccc21 | < 4.00 | < 4.00 |  |  |  |
| Cn1c(=O)c(C(=O)C(F)(F)F)c(N2CCN(C(c3ccccc3)c3ccccc3)CC2)c2ccccc21 | 5.15 | 5.24 | 63 | 75 |  |
| Cn1c(=O)c([N+](=O)[O-])c(N2CCN(C(c3ccc(F)cc3)c3ccc(F)cc3)CC2)c2ccc(F)cc21 | 5.59 | 5.74 |  |  |  |
| Cn1c(=O)c([N+](=O)[O-])c(N2CCN(Cc3ccccc3)CC2)c2cc(F)ccc21 | 5.82 | 5.60 | 8 | 43 |  |

Now from value to compound, other results behind:

| pEC50 (Raji [1]) | pEC50 (Raji [2]) | Stability [10] [%] | Stability [11] [%] | Compound | also measured |
| --- | --- | --- | --- | --- | --- |
| 6.47 | 6.31 | 77 | 89 | Cn1c(=O)c([N+](=O)[O-])c(N2CCN(C(c3ccc(F)cc3)c3ccc(F)cc3)CC2)c2cc(F)ccc21 |  |
| 6.21 | 5.96 |  | 84 | Cn1c(=O)c(C#N)c(N2CCN(C(c3ccc(F)cc3)c3ccc(F)cc3)CC2)c2cc(F)ccc21 |  |
| 6.41 | 6.40 | 43 | 100 | COc1ccc2c(n1)c(N1CCN(C(c3ccc(F)cc3)c3ccc(F)cc3)CC1)c(C#N)c(=O)n2C |  |
| 6.20 | 5.92 | 8 | 79 | COc1ccc2c(c1)c(N1CCN(C(c3ccc(F)cc3)c3ccc(F)cc3)CC1)c([N+](=O)[O-])c(=O)n2C |  |
| 6.38 | 6.43 | < 1 | 10 | C#CCCC1(CCCN2CCN(c3c([N+](=O)[O-])c(=O)n(C)c4ccc(Br)nc34)CC2)N=N1 |  |
| 6.17 | 6.12 | 5 | 69 | CN(C)c1ccc2c(c1)c(N1CCN(C(c3ccc(F)cc3)c3ccc(F)cc3)CC1)c([N+](=O)[O-])c(=O)n2C |  |
| 6.54 | 6.51 | 88 | 92 | Cn1c(=O)c([N+](=O)[O-])c(N2CCN(C(c3ccc(F)cc3)c3ccc(F)cc3)CC2)c2ncccc21 | pIC50 [3]: 7.28; pIC50 [6]: 5.57; pIC50 [7]: 6.00 |
| 5.86 | 5.91 |  |  | Cn1c(=O)c(C#N)c(N2CCN(C(c3ccccc3)c3ccccc3)CC2)c2ccccc21 |  |
| 6.25 | 6.08 | 63 | 100 | Cn1c(=O)c([N+](=O)[O-])c(N2CCN(C(c3ccc(F)cc3)c3ccc(F)cc3)CC2)c2cnccc21 |  |
| 6.72 | 7.17 | 80 | 92 | Cn1c(=O)c(C#N)c(N2CCN(C(c3ccc(F)cc3)c3ccc(F)cc3)CC2)c2nc(C#N)ccc21 |  |
| 6.89 | 6.92 | 93 | 97 | Cn1c(=O)c([N+](=O)[O-])c(N2CCN(C(c3ccc(F)cc3)c3ccc(F)cc3)CC2)c2cc(C#N)ccc21 | pIC50 [3]: 7.47; pIC50 [6]: 5.00; pIC50 [7]: 5.21 |

Source: ChEMBL document CHEMBL5360601, “Discovery of Potent, Dual-Inhibitors of Diacylglycerol Kinases Alpha and Zeta Guided by Phenotypic Optimization” (ACS Med Chem Lett, 2023)
